# Measurements published in patent US20110065663A1, “ANTI-CANCER COMBINATION THERAPY” (Katholieke Universiteit Leuven, K.U. Leuven R&D, priority 2008, published 2011).
# Read-outs that look alike come from different tables or passages of the source.
# Tests used:
# M. hyorhinis TP = assay: TP activity in the medium of MCF-7/HYOR cell cultures (HPLC, conversion of nucleoside to free base); assay type: biochemical, Mycoplasma hyorhinis; conditions: for Percent conversion of nucleoside to the free pyrimidine base in MCF-7/HYOR medium: 37° C.
# Description: (§1) The TP activity of M. hyorhinis and the conversion of dThd, FdUrd, 5′DFUR and TFT to thymine, 5FU, 5FU or TF-thymine respectively were measured by high-pressure liquid chromatography (HPLC) analysis. MCF-7 and MCF-7/HYOR cells were seeded at a density of 20,000 cells/cm^2 in DMEM with 10% FBS. Four days later, the medium was collected and cleared by centrifugation at 1,400 rpm. For some experiments, the medium of MCF-7/HYOR cells was filtered using a 0.1 μm micro filter (Acrodisc syringe filter, PALL Corporation, East Hills, N.Y.) to remove the mycoplasmas from the medium. 600 μl of the medium was incubated with 200 μM of substrate (dThd, 5′DFUR, TFT or FdUrd) at 37° C. in the presence or absence of 10 μM TPi. At different time points (i.e. 0, 15, 30, 60, 120 minutes and 16 hours), 100 μl aliquots were withdrawn, transferred to Eppendorf tubes and heated at 95° C. for 3 min. Next, the samples were rapidly cooled on ice, exposed for 20 min to 200 μl ice-cold methanol and cleared by centrifugation at 15,000 rpm for 15 minutes. As a positive control, an enzyme activity assay with E. coli TP (Sigma) was performed. For this reaction, 0.025 U of TP were incubated with 200 μM of substrate in TP-buffer (10 mM Tris-HCl, pH 7.6, 1 mM EDTA, 2 mM potassium phosphate and 150 mM NaCl) in a total volume of 600 μl. Aliquots of 100 μl were withdrawn from the reaction mixture at several time points and treated as described above. The nucleosides were separated from their nucleobases on a reversed-phase RP-8 column (Merck, Darmstadt, Germany) and quantified by HPLC analysis (Aliance 2690, Waters, Milford, Mass.). The separation was performed by a linear gradient from 100% buffer B (50 mM NaH2PO4 and 5 mM heptane sulfonic acid, pH 3.2), to 20% buffer B and 80% acetonitrile. […] UV-based detection of all nucleosides was performed at 267 nm.
# E. coli TP = target: T1, E. coli TP (Escherichia coli, UniProt P07650); assay: Enzyme activity assay with recombinant E. coli TP (positive control); assay type: biochemical; conditions: 0.025 U TP, 200 μM substrate
# T1 construct: purchased Sigma
# Description: The TP activity of M. hyorhinis and the conversion of dThd, FdUrd, 5′DFUR and TFT to thymine, 5FU, 5FU or TF-thymine respectively were measured by high-pressure liquid chromatography (HPLC) analysis. MCF-7 and MCF-7/HYOR cells were seeded at a density of 20,000 cells/cm^2 in DMEM with 10% FBS. Four days later, the medium was collected and cleared by centrifugation at 1,400 rpm. For some experiments, the medium of MCF-7/HYOR cells was filtered using a 0.1 μm micro filter (Acrodisc syringe filter, PALL Corporation, East Hills, N.Y.) to remove the mycoplasmas from the medium. 600 μl of the medium was incubated with 200 μM of substrate (dThd, 5′DFUR, TFT or FdUrd) at 37° C. in the presence or absence of 10 μM TPi. At different time points (i.e. 0, 15, 30, 60, 120 minutes and 16 hours), 100 μl aliquots were withdrawn, transferred to Eppendorf tubes and heated at 95° C. for 3 min. Next, the samples were rapidly cooled on ice, exposed for 20 min to 200 μl ice-cold methanol and cleared by centrifugation at 15,000 rpm for 15 minutes. As a positive control, an enzyme activity assay with E. coli TP (Sigma) was performed. For this reaction, 0.025 U of TP were incubated with 200 μM of substrate in TP-buffer (10 mM Tris-HCl, pH 7.6, 1 mM EDTA, 2 mM potassium phosphate and 150 mM NaCl) in a total volume of 600 μl. Aliquots of 100 μl were withdrawn from the reaction mixture at several time points and treated as described above. The nucleosides were separated from their nucleobases on a reversed-phase RP-8 column (Merck, Darmstadt, Germany) and quantified by HPLC analysis (Aliance 2690, Waters, Milford, Mass.). The separation was performed by a linear gradient from 100% buffer B (50 mM NaH2PO4 and 5 mM heptane sulfonic acid, pH 3.2), to 20% buffer B and 80% acetonitrile. Retention times of thymine and thymidine were respectively 5.1 and 10.8 minutes. UV-based detection of all nucleosides was performed at 267 nm.
# MCF-7 cells = assay: Tumor cell proliferation assay, uninfected MCF-7 cells; assay type: cell-based, human; conditions: Homo sapiens, uninfected MCF-7
# Description: MCF-7 and MCF-7/HYOR cells were seeded in 48-well plates at 10,000 cells/cm^2. […] of the test compounds (5FU, 5′DFUR, CIdUrd, BrdUrd, IdUrd and TFT) with or without 10 μM TPi were added. The cells were incubated for another 4 days, trypsinized and counted by a Coulter counter (Analis, Suarlée, Belgium). In some experiments, the antibiotic plasmocin was added one or three days before addition of the test compounds.
# MCF-7/HYOR cells [1] = assay: Tumor cell proliferation assay, M. hyorhinis-infected MCF-7 cells; assay type: cell-based, human; conditions: for IC50: Homo sapiens
# Description: Mycoplasma hyorhinis (ATCC 17981) was obtained from the American Type Culture Collection (ATCC, Manassas, Va.). The freeze-dried bacteria were reconstituted by adding 1 ml of DMEM. […] The co-culture of MCF-7 cells and M. hyorhinis was maintained under the same conditions as the uninfected MCF-7 cells. […] The cells were incubated for another 4 days, trypsinized and counted by a Coulter counter (Analis, Suarlée, Belgium).
# [2] = Conversion of nucleosides in the medium of uninfected MCF-7 cells; assay type: biochemical, human; conditions: even after 24 hours of incubation; data not shown
# Description: as §1, with “At different time points (i.e. 0, 15, 30, 60, 120 minutes and 16 hours), 100 μl aliquots were withdrawn, transferred to Eppendorf tubes and heated at 95° C. for 3 min.” left out
# M. hyorhinis = assay: Staining of DNA with Hoechst 33342, growth of M. hyorhinis in MCF-7 cell cultures; assay type: cell-based, Mycoplasma hyorhinis; conditions: 10 μM; 3 days
# Description: 10,000 cells/cm^2 (MCF-7 and MCF-7/HYOR) were seeded in 8-well chamber slides (Nunc, Roskilde, Denmark). After 24 hours, 10 μM TPi was added and the cells were incubated for an additional 72 hours. Next, the cells were fixed with Carnoy's fixative (1 part glacial acetic acid to 3 parts absolute methanol) for 10 minutes, air-dried and exposed to the DNA-binding dye Hoechst 33342 (Sigma) at a concentration of 0.5 μg/ml for 15 min at room temperature. Next, the cells were washed twice with de-ionised water and covered with mounting medium (‘glycergel’, Dako, Glostrup, Denmark) and a cover slip. Fluorescence was visualised with a Leica TCS SP5 confocal microscope (Leica, Wetzlar, Germany).
# MCF-7/HYOR cell cultures = assay: Nucleoside metabolism experiments, distribution of drug-derived radiolabel in MCF-7/HYOR cell cultures; assay type: cell-based, human; conditions: MCF-7/HYOR
# Description: Next, the cells were trypsinized, transferred to Eppendorf tubes and centrifuged for 10 minutes at 1,400 rpm. The pellet was resuspended in 1 ml absolute ice-cold methanol and kept on ice for 20 minutes. After centrifugation for 20 minutes at 13,000 rpm the pellet was washed twice with methanol, resuspended in methanol and transferred to scintillation vials containing 9 ml of Ready safe liquid scintillation reagent (‘Hisafe 3’, Perkin Elmer, Waltham, Mass.). The radioactivity was measured by a Liquid scintillation analyzer (2300 TR, Packard, Canberra, Australia). […] Next, the cells were incubated in 0.5 ml absolute ice-cold methanol and kept on ice for 20 minutes. After centrifugation for 20 minutes at 13,000 rpm, the supernatant was subjected to HPLC analysis. […] The amount of compound incorporated into nucleic acids was measured as described above.
# MCF-7/HYOR cells [3] = assay: Nucleotide incorporation assay, MCF-7/HYOR compared with MCF-7 cells; assay type: cell-based, human; conditions: 1 μCi radiolabeled compound; FIG. 4
# Description: MCF-7 and MCF-7/HYOR cells were seeded at 10,000 cells/cm. After 48 hours, cells were treated with 1 μCi of ^3H-labeled nucleoside with or without 10 μM TPi. 16 h later, the medium was removed and the cells were washed twice with PBS. Next, the cells were trypsinized, transferred to Eppendorf tubes and centrifuged for 10 minutes at 1,400 rpm. The pellet was resuspended in 1 ml absolute ice-cold methanol and kept on ice for 20 minutes. After centrifugation for 20 minutes at 13,000 rpm the pellet was washed twice with methanol, resuspended in methanol and transferred to scintillation vials containing 9 ml of Ready safe liquid scintillation reagent (‘Hisafe 3’, Perkin Elmer, Waltham, Mass.). The radioactivity was measured by a Liquid scintillation analyzer (2300 TR, Packard, Canberra, Australia).
# T1 sequence (P07650 whole entry): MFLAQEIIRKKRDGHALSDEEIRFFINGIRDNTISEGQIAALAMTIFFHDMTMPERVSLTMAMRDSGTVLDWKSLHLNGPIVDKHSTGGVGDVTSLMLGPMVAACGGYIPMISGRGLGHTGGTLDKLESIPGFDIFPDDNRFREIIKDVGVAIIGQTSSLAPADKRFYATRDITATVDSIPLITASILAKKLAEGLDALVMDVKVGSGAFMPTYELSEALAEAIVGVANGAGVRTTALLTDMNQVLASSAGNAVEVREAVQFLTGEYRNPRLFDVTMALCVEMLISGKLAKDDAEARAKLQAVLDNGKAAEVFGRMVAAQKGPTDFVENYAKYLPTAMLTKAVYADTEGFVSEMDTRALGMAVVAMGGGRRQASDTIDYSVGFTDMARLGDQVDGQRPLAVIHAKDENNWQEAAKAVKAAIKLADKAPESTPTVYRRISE
structure (smiles),measurement,setting,value
"C[C@H]1O[C@@H](n2cc(F)c(=O)[nH]c2=O)[C@H](O)[C@@H]1O [5′DFUR, 5-fluoro-5′-deoxyuridine]",Percent conversion of nucleoside to the free pyrimidine base in MCF-7/HYOR medium,"M. hyorhinis TP; 2 hours, 200 μM substrate",5%
same,Percent conversion of nucleoside to the free pyrimidine base in MCF-7/HYOR medium,"M. hyorhinis TP; 16 hours, 200 μM substrate",22%
same,"Percent conversion of nucleoside to the free pyrimidine base, recombinant E. coli TP",E. coli TP; 2 hours,26%
same,"Percent conversion of nucleoside to the free pyrimidine base, recombinant E. coli TP",E. coli TP; 16 hours,64%
same,IC50,"MCF-7 cells; MCF7, 96 h, no TPi, 4 days, read-out: IC50 MCF-7 As such",> 100 µM
same,IC50,"MCF-7 cells; MCF7, with 10 μM TPi, read-out: IC50 MCF-7 +TPi (10 μM)",> 100 µM
same,IC50,"MCF-7/HYOR cells [1]; MCF7, read-out: IC50 MCF-7/HYOR +TPi (10 μM)",> 100 µM
same,IC50,"MCF-7/HYOR cells [1]; MCF7, read-out: IC50 MCF-7/HYOR As such",3.5 ± 0.53 µM
same,IC50,"MCF-7/HYOR cells [1]; MCF7, plasmocin 25 μg/ml, 1 day pretreatment, read-out: IC50 MCF-7/HYOR +plasmocin (25 μg/ml) 1 day prior to addition of test compounds",> 100 µM
same,IC50,"MCF-7/HYOR cells [1]; MCF7, plasmocin 25 μg/ml, 3 days pretreatment, read-out: IC50 MCF-7/HYOR +plasmocin (25 μg/ml) 3 days prior to addition of test compounds",> 100 µM
same,Ratio (1)/(2) MCF-7/HYOR,MCF-7/HYOR cells [1]; IC50 in the absence of TPi to IC50 in the presence of TPi,<0.035
same,Conversion in the medium of uninfected MCF-7 cells,[2],no conversion
"Cl.N=C1CCCN1Cc1[nH]c(=O)[nH]c(=O)c1Cl [TPi, 5-chloro-6-(1 [2-iminopyrrolidinyl]methyl)uracil hydrochloride]","Inhibition of conversion of dThd, TFT, FdUrd and 5′DFUR to their free bases in MCF-7/HYOR culture medium","M. hyorhinis TP; 10 μM TPi, 200 μM substrate",completely inhibited
same,Effect on the growth of M. hyorhinis in MCF-7 cell cultures,M. hyorhinis,not inhibitory
"Cc1cn([C@H]2C[C@H](O)[C@@H](CO)O2)c(=O)[nH]c1=O [dThd, thymidine]",Percent conversion of nucleoside to the free pyrimidine base in MCF-7/HYOR medium,"M. hyorhinis TP; 16 hours, 200 μM substrate",97%
same,Thymidine degraded into thymine,"M. hyorhinis TP; within 60 minutes, FIG. 3",almost all
same,"Percent conversion of nucleoside to the free pyrimidine base, recombinant E. coli TP",E. coli TP; 2 hours,82%
same,"Percent conversion of nucleoside to the free pyrimidine base, recombinant E. coli TP",E. coli TP; 16 hours,93%
same,"% of drug-derived radiolabel, In medium, Base","MCF-7/HYOR cell cultures; 1 μCi, 16 h",74.6%
same,"% of drug-derived radiolabel, In medium, Nucleoside","MCF-7/HYOR cell cultures; 1 μCi, 16 h",11.5%
same,"% of drug-derived radiolabel, In the cytosol of the cells, 5′-diphosphate","MCF-7/HYOR cell cultures; 1 μCi, 16 h",0.3%
same,"% of drug-derived radiolabel, In the cytosol of the cells, 5′-monophosphate","MCF-7/HYOR cell cultures; 1 μCi, 16 h",0.6%
same,"% of drug-derived radiolabel, In the cytosol of the cells, 5′-triphosphate","MCF-7/HYOR cell cultures; 1 μCi, 16 h",0.2%
same,"% of drug-derived radiolabel, In the cytosol of the cells, Nucleoside/nucleobase","MCF-7/HYOR cell cultures; 1 μCi, 16 h",7.5%
same,"% of drug-derived radiolabel, Incorporatio into DNA/RNA","MCF-7/HYOR cell cultures; 1 μCi, 16 h",5.3%
same,Share incorporated into the nucleic acids in the presence of TPi,MCF-7/HYOR cell cultures; in the presence of TPi,almost all
same,Reduction of incorporation into nucleic acids in infected MCF-7/HYOR cells in comparison with uninfected MCF-7 cells,MCF-7/HYOR cells [3],85 fold
same,Conversion in the medium of uninfected MCF-7 cells,[2],no conversion
